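Compound exposure: 48 hours, 5 concentrations, 96-well plates. GI50 = concentration required for 50% inhibition of growth.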 Calls of active or inactive are those of the source. No stated cut-off is given here; in the data, active = GI50 up to about 1.1 µM and inactive = higher.
Assays:
Assay in all cases: NCI tumour cell line growth inhibition, 48 h
[1] = tested on: NCI-H522
[2] = tested on: SF-539
[3] = tested on: SK-MEL-28
[4] = tested on: SN12C
[5] = tested on: IGROV-1
[6] = tested on: MOLT-4
[7] = tested on: ACHN
[8] = tested on: NCI/ADR-RES
[9] = tested on: CCRF-CEM
[10] = tested on: COLO 205
[11] = tested on: OVCAR-3
[12] = tested on: NCI-H460
[13] = tested on: HOP-62
[14] = tested on: CAKI-1
[15] = tested on: HCT-15
[16] = tested on: MDA-MB-231
[17] = tested on: UACC-257
[18] = tested on: SK-OV-3
[19] = tested on: T47D
[20] = tested on: OVCAR-4
[21] = tested on: OVCAR-5
[22] = tested on: SF-295
[23] = tested on: OVCAR-8
[24] = tested on: MDA-MB-435
[25] = tested on: SK-MEL-5
[26] = tested on: NCI-H23
[27] = tested on: TK-10
[28] = tested on: U-251
[29] = tested on: RXF 393
[30] = tested on: Malme-3M
[31] = tested on: UO-31
[32] = tested on: DU-145
[33] = tested on: RPMI-8226
[34] = tested on: PC-3
[35] = tested on: HCT-116
[36] = tested on: SNB-19
[37] = tested on: LOX IMVI
[38] = tested on: 786-0
[39] = tested on: HOP-92
[40] = tested on: A549
[41] = tested on: KM12
[42] = tested on: SNB-75
[43] = tested on: A498
[44] = tested on: M14
[45] = tested on: HL-60
[46] = tested on: SF-268
[47] = tested on: EKVX
[48] = tested on: MDA-N
[49] = tested on: NCI-H226
[50] = tested on: BT-549
[51] = tested on: SK-MEL-2
[52] = tested on: HT-29
[53] = tested on: UACC-62
[54] = tested on: K562
[55] = tested on: Hs-578T
[56] = tested on: SW-620
[57] = tested on: SR
[58] = tested on: HCC 2998
[59] = tested on: MCF7

Measured: GI50

CC(=O)c1ccc2c(c1)N(CCCN1CCN(CCO)CC1)c1ccccc1C2
inactive: [1] 16.3 µM | [2] 16.7 µM | [3] 11.2 µM | [4] 16.9 µM | [5] 17.3 µM | [6] 18.4 µM | [7] 20.3 µM | [8] 13.9 µM | [9] 11.7 µM | [10] 15.1 µM | [11] 15.5 µM | [12] 15.8 µM | [13] 15.3 µM | [14] 13.6 µM | [16] 13.2 µM | [17] 5.78 µM | [18] 16.3 µM | [19] 12.3 µM | [20] 15.1 µM | [21] 17.2 µM | [22] 17.1 µM | [23] 16.7 µM | [24] 8.71 µM | [25] 12.2 µM | [26] 15.8 µM | [27] 14.7 µM | [28] 15.8 µM | [29] 15.4 µM | [30] 18.2 µM | [31] 23.8 µM | [32] 14.3 µM | [33] 12.9 µM | [34] 14.3 µM | [35] 16.3 µM | [36] 18.9 µM | [37] 15.2 µM | [38] 16.9 µM | [39] 12.9 µM | [40] 17.9 µM | [41] 15.5 µM | [42] 16.6 µM | [43] 15.7 µM | [44] 13.6 µM | [45] 13.8 µM | [46] 17.8 µM | [47] 17.9 µM | [48] 13 µM | [49] 14.6 µM | [50] 14.7 µM | [51] 18.3 µM | [52] 10 µM | [53] 10.8 µM | [54] 13.5 µM | [55] 14.8 µM | [56] 14.5 µM
14.4 µM: [15]

O=S(=O)(/N=c1/[nH]c2ccccc2n1S(=O)(=O)c1ccccc1)c1ccccc1
36.3 µM: [15]
inactive: [1] 50.4 µM | [3] 34.4 µM | [4] 65.5 µM | [5] 48 µM | [6] 29.2 µM | [7] 26.5 µM | [8] 44.9 µM | [9] 31.3 µM | [10] 53.5 µM | [11] 27.9 µM | [13] 56.5 µM | [14] 65.8 µM | [16] > 100 µM | [17] 45 µM | [18] 50 µM | [19] 53.1 µM | [20] 46.6 µM | [21] 64.9 µM | [22] 41.1 µM | [23] 55 µM | [57] > 10 µM | [24] 36.8 µM | [25] 47.8 µM | [26] 41.6 µM | [27] 47.5 µM | [28] 22.1 µM | [29] 56.8 µM | [30] 37.2 µM | [31] 36.3 µM | [32] 57.7 µM | [33] 35.4 µM | [34] 36.8 µM | [35] 46.7 µM | [36] 32.7 µM | [37] > 100 µM | [38] 67 µM | [39] 38.5 µM | [40] 42.4 µM | [41] 33.1 µM | [42] 88.3 µM | [43] 80.9 µM | [44] 25.2 µM | [46] 42.4 µM | [47] 65.6 µM | [48] 56.2 µM | [49] 56.2 µM | [50] 41.2 µM | [51] 35.4 µM | [52] 44 µM | [53] 26.7 µM | [54] 32.7 µM | [55] 88.1 µM | [56] 30.4 µM

O=C(c1cc(Cl)ccc1Cl)N1CCN(c2cccc(Cl)c2)CC1
inactive: [58] 13.5 µM | [1] 10.6 µM | [2] 13.6 µM | [3] 15.6 µM | [4] 4.09 µM | [5] 10.8 µM | [6] 8.51 µM | [7] 22.8 µM | [9] 12.2 µM | [11] 14.5 µM | [12] 14.6 µM | [13] 16 µM | [14] 17.7 µM | [16] 5.6 µM | [17] 15.2 µM | [19] 10.7 µM | [20] 33 µM | [21] 26.4 µM | [22] 7.55 µM | [23] 14.8 µM | [57] 26.4 µM | [25] 6.59 µM | [26] 32.9 µM | [27] 49.5 µM | [28] 19 µM | [29] 11.1 µM | [30] 11.1 µM | [31] 19.7 µM | [32] 31.5 µM | [33] 22.3 µM | [34] 2.08 µM | [35] 11.4 µM | [36] 34.8 µM | [37] 10.9 µM | [38] 15.3 µM | [39] > 10 µM | [40] 11 µM | [41] 6.07 µM | [42] 13.9 µM | [43] 12.7 µM | [44] 22.2 µM | [59] 12.4 µM | [45] 38.4 µM | [46] 27.9 µM | [47] 22.9 µM | [48] 1.87 µM | [49] 12.8 µM | [50] 8.61 µM | [52] 12.4 µM | [54] 3.92 µM | [55] 21.9 µM | [56] 24.2 µM
8.85 µM: [15]

CC(C)=CCC[C@](C)(O[C@@H]1O[C@H](CO)[C@@H](O)[C@H](O)[C@H]1O)[C@H]1CC[C@]2(C)[C@@H]1[C@H](O)C[C@@H]1[C@@]3(C)CC[C@@H](O)C(C)(C)[C@@H]3[C@@H](O[C@@H]3O[C@H](CO)[C@@H](O)[C@H](O)[C@H]3O)C[C@]12C.C[C@@H]1O[C@@H](O[C@H]2[C@H](O[C@H]3C[C@]4(C)[C@H](C[C@H](O)[C@@H]5[C@@H]([C@@]6(C)CC[C@H](C(C)(C)O)O6)CC[C@]54C)[C@@]4(C)CC[C@H](O)C(C)(C)[C@H]34)O[C@H](CO)[C@@H](O)[C@@H]2O)[C@H](O)[C@H](O)[C@H]1O
inactive: [58] > 100 µM | [1] > 100 µM | [2] > 100 µM | [3] > 100 µM | [4] > 100 µM | [5] > 100 µM | [6] 84.9 µM | [7] > 100 µM | [9] > 100 µM | [10] > 100 µM | [11] 24.9 µM | [12] > 100 µM | [13] > 100 µM | [14] > 100 µM | [16] > 100 µM | [17] > 100 µM | [18] > 100 µM | [19] > 100 µM | [20] > 100 µM | [21] > 100 µM | [22] > 100 µM | [23] > 100 µM | [57] > 100 µM | [24] > 100 µM | [25] > 100 µM | [26] > 100 µM | [27] > 100 µM | [28] > 100 µM | [29] > 100 µM | [31] > 100 µM | [32] > 100 µM | [33] > 100 µM | [34] > 100 µM | [35] > 100 µM | [36] > 100 µM | [37] > 100 µM | [38] > 100 µM | [39] > 100 µM | [40] > 100 µM | [41] > 100 µM | [42] > 100 µM | [43] > 100 µM | [44] > 100 µM | [59] > 100 µM | [45] > 100 µM | [46] > 100 µM | [47] > 100 µM | [48] > 100 µM | [49] > 100 µM | [50] > 100 µM | [51] > 100 µM | [52] > 100 µM | [53] > 100 µM | [54] > 100 µM | [55] > 100 µM | [56] > 100 µM
> 100 µM: [15]
